ChEMBL document CHEMBL1201862, “PubChem BioAssay data set” (2004)
The source made the active and inactive calls.

Tests used:
[1] = system: Vero; experiment: cells; type: functional, cell-based; details: Chlorocebus sabaeus
[2] = target: T1, Endoribonuclease toxin MazF (Escherichia coli K-12, UniProt P0AE70); experiment: substrate-only fluorescence increase artefacts – biochemical, single-stranded RNase substrate, counter-screen for MazEF activator project, dose response (AID 588502); type: functional
T1 sequence (P0AE70 whole entry): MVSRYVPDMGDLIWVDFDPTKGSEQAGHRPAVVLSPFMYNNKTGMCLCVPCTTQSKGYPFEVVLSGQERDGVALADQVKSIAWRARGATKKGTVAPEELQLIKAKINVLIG

[3] = Luminescence Cell-Based Dose Retest to Confirm Inhibitors of Cancer Stem Cells. [Related pubchem assays (depositor defined):AID2717, AID2721]; type: functional; details: Homo sapiens
[4] = system: BJ; experiment: BJ-TERT fibroblast viability loss – cell-based, RAS-independent, luminescence, dose response (AID 1933); type: functional; details: Homo sapiens
[5] = system: BJ; experiment: cells; type: functional, cell-based; details: Homo sapiens
[6] = DRD fibroblast viability loss – cell-based, non-viral oncogenic, luminescence, dose response (AID 1934); type: functional; details: Homo sapiens
[7] = system: Vero; experiment: cells; type: functional; details: Chlorocebus sabaeus
[8] = target: T1, Endoribonuclease toxin MazF; experiment: activation of MazEF endoribonuclease cleavage – biochemical, fluorescence, single-stranded RNA substrate, uHTS hits, dose response (AID 588481); type: functional
[9] = system: BJ; experiment: BJ-TERT-LT-ST fibroblast viability loss – cell-based, RAS-independent, luminescence, dose response (AID 1935); type: functional; details: Homo sapiens;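 note: BJ fibroblasts immortalized with TERT plus LT and ST oncogenes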
[10] = viability of PTEN-deleted HCT116 cells – cell-based, HCT116 PTEN knockout, dose response (AID 1047); type: functional;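 note: HCT116 colon tumor cells with PTEN knocked out; cells exposed to compound for 60 hours before readout; potency for loss of cell viability measured by luminescence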
[11] = viability of HCT116 lacking mutant beta-catenin – cell-based, human colon tumor, dose response (AID 1045); type: functional;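 note: HCT116 colon tumor cells with beta catenin knocked out; cells exposed to compound for 60 hours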
[12] = M. tuberculosis H37Rv growth inhibitors, H37Rv strain (AID 1626); type: functional
[13] = non-specific 3'UTR reporter inhibition in Clone20-Shn3RL – cell-based, Renilla luciferase, cherry-picked, counter-screen for Shn3 inhibitor project, dose response (AID 624133); type: functional
[14] = target: T2, Replicative DNA helicase DnaB (Mycobacterium tuberculosis, UniProt P9WMR3); experiment: DnaB intein splicing inhibitors, dose response, biochemical, cell-free fluorescence (AID 449749); type: functional
T2 sequence (P9WMR3 whole entry): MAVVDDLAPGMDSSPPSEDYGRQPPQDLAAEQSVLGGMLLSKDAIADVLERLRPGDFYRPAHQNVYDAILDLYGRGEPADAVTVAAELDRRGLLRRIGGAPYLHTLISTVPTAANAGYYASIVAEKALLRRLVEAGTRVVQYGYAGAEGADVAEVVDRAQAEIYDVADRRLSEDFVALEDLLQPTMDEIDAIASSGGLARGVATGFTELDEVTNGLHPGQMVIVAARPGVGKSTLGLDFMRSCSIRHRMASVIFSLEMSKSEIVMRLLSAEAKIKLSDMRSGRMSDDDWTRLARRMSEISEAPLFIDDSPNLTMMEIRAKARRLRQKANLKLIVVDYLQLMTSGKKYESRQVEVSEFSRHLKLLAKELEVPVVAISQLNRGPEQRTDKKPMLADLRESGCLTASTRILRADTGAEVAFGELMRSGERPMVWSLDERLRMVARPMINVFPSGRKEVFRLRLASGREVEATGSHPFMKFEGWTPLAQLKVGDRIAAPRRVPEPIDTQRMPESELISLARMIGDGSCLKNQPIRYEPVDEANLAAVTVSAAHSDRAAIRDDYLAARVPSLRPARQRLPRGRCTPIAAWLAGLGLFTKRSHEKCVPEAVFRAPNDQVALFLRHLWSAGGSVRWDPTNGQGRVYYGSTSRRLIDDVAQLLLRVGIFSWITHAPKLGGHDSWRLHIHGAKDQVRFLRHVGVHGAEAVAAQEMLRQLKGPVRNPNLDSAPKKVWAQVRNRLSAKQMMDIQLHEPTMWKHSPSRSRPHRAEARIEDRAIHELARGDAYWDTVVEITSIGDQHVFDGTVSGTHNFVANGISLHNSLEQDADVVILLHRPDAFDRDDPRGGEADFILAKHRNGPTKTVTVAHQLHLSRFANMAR

[15] = target: T3, Hepatocyte nuclear factor 4-alpha (Homo sapiens, UniProt P41235); type: functional, cell-based;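 note: biochemical luminescence-based dose-response counterscreen measuring inhibition of HNF4 dimerization, run alongside a screen for blockers of ABHD5–perilipin-5 interaction; split luciferase complementation of HNF4 fusion proteins in cell lysate measuring dimerization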
T3 sequence (P41235 whole entry): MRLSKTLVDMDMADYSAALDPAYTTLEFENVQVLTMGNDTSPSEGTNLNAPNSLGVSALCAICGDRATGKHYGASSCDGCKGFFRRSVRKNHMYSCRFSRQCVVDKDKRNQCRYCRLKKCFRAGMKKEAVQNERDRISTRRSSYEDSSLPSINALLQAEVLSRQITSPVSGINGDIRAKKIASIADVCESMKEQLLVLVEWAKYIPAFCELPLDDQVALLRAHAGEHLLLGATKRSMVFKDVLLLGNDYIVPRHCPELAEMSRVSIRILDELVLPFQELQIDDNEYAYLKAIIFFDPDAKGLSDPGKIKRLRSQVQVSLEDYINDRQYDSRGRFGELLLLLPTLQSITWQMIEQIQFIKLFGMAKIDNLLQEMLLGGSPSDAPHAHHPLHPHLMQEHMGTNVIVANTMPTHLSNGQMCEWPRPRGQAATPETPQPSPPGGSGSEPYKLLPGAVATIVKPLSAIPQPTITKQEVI

[16] = target: Potassium voltage-gated channel subfamily KQT member 2 (Rattus norvegicus, UniProt O88943, W236L); experiment: potentiation of rat KCNQ2 current – cell-based, automated electrophysiology, mechanism study for KCNQ2 potentiator project, dose response (AID 2603); type: functional
[17] = reduction of Shn3 3'UTR-driven luciferase in osteoblasts – cell-based, Clone20 osteoblasts, firefly luciferase, cherry-picked, dose response (AID 624132); type: functional;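 note: firefly luciferase luminescence from reporter carrying the Shn3 3'UTR in osteoblasts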
[18] = target: T4, Protein RecA (Mycobacterium tuberculosis, UniProt P9WHJ3); experiment: Fluorescence Cell-Free Homogeneous Dose Retest to Identify Inhibitors of RecA-Intein Splicing Activity. [Related pubchem assays (depositor defined):AID2097, AID2223, AID489010, AID492950]; type: functional
T4 sequence (P9WHJ3 whole entry): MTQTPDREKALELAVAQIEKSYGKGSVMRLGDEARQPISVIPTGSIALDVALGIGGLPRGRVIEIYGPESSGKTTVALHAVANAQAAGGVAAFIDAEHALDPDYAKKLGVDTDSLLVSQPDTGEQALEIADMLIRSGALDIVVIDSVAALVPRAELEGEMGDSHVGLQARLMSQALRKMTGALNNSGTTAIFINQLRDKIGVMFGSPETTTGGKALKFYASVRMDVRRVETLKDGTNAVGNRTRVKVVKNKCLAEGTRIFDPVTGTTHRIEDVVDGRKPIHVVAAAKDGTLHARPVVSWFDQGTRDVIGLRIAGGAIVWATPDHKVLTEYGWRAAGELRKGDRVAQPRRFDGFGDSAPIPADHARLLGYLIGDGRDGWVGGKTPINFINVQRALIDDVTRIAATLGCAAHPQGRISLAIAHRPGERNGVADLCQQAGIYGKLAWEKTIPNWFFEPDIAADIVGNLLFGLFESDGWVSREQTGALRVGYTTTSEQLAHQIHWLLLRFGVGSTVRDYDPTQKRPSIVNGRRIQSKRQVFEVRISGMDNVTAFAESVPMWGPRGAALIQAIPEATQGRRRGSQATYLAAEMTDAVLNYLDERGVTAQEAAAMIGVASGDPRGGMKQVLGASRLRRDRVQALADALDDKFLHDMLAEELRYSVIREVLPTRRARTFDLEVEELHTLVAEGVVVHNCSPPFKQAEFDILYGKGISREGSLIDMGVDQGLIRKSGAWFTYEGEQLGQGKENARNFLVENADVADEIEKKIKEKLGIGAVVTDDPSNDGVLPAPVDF

[19] = loss of viability in HepG2 cells – cell-based, CellTiter-Glo, cherry-picked, cytotoxicity control for Shn3 inhibitor project, dose response (AID 624134); type: functional
[20] = target: Serine/threonine-protein phosphatase (Homo sapiens, UniProt Q9BPW0); experiment: inhibition of protein phosphatase 5 activity – biochemical, fluorescence, dose response (AID 2395)
[21] = target: Serine/threonine-protein phosphatase PP1-alpha catalytic subunit (Homo sapiens, UniProt P62136); experiment: inhibition of protein phosphatase 1 activity – biochemical, fluorescence, dose response (AID 2394)
[22] = target: T5, Mannose-6-phosphate isomerase (Homo sapiens, UniProt P34949); experiment: MPI enzyme activity inhibition – biochemical, fluorescence intensity, coupled assay, primary screen (AID 1209)
T5 sequence (P34949 whole entry): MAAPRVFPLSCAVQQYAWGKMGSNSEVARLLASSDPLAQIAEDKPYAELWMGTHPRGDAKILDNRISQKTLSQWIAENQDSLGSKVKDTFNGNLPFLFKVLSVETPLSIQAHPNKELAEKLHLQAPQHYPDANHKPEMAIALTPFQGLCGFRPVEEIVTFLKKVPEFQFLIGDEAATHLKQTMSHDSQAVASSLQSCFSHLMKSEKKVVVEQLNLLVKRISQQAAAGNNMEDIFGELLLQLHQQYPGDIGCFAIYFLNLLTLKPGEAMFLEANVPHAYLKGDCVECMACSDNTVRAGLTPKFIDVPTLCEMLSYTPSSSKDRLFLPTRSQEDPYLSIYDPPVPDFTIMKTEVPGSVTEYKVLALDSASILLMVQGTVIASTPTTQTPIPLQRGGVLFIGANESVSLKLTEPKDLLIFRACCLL

[23] = target: Genome polyprotein (dengue virus type 2, UniProt P29990); experiment: flavivirus cap methylation enzyme inhibition – biochemical, confirmation dose response, primary screen (AID 588689); type: functional
[24] = HPDE-C7 pancreatic duct cell viability loss – fluorescence, HTS (AID 430); type: functional, cell-based; details: Homo sapiens
[25] = viability loss of HPDE-C7K cells – cell-based, fluorescence, HTS, primary screen (AID 431); type: functional; details: Homo sapiens
[26] = target: T5, Mannose-6-phosphate isomerase; experiment: MPI inhibition at elevated mannose 6-phosphate – biochemical, fluorescence intensity, high mannose 6-phosphate, primary screen (AID 1220)
[27] = target: Nonstructural protein 1 (Influenza A virus, UniProt Q194T2); type: functional, Influenza A virus (A/California/07/2009(H1N1))
[28] = target: Sphingosine 1-phosphate receptor 2 (Homo sapiens, UniProt O95136); experiment: Dose Response Cell Based Assay for Agonists of the S1P2 Receptor of Purchased Analogues. [Related pubchem assays: 729, 843, 854, 736 ]; type: functional
[29] = target: T6, Ubiquitin-conjugating enzyme E2 N (Homo sapiens, UniProt P61088); type: functional;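 note: Dose-response confirmation in a TR-FRET assay detecting UBC13-driven polyubiquitin chain formation, inhibition measured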
T6 sequence (P61088 whole entry): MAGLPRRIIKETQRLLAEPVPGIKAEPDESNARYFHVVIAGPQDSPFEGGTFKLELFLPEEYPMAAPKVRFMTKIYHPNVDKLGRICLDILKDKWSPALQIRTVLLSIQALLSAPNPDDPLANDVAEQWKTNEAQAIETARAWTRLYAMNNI

[30] = Luminescence-based dose response cell-based high throughput screening assay for cytotoxic compounds using the IEC-6 intestinal epithelial cell line. [Related pubchem assays: 1858 (Summary AID.), 1825 (Counterscreen.), 1907 (Confirmation screen.)]; type: functional
[31] = target: Transitional endoplasmic reticulum ATPase (Homo sapiens, UniProt P55072); experiment: Luminescence dose response biochemical high throughput screening assay for inhibitors of the p97 ATPase: synthesized compounds. [Related pubchem assays: 1481, 1517 ]
[32] = target: Transitional endoplasmic reticulum ATPase (Homo sapiens, UniProt P55072, C522A); experiment: Luminescence counterscreen assay for p97 inhibitors: dose response biochemical high throughput screening assay to identify inhibitors of the C522A mutant p97 ATPase: synthesized compounds. [Related pubchem assays: 1481, 1517, 1551 ]
Transitional endoplasmic reticulum ATPase (Homo sapiens, UniProt P55072, C522A), sequence (P55072 2-806 C522A limits assumed): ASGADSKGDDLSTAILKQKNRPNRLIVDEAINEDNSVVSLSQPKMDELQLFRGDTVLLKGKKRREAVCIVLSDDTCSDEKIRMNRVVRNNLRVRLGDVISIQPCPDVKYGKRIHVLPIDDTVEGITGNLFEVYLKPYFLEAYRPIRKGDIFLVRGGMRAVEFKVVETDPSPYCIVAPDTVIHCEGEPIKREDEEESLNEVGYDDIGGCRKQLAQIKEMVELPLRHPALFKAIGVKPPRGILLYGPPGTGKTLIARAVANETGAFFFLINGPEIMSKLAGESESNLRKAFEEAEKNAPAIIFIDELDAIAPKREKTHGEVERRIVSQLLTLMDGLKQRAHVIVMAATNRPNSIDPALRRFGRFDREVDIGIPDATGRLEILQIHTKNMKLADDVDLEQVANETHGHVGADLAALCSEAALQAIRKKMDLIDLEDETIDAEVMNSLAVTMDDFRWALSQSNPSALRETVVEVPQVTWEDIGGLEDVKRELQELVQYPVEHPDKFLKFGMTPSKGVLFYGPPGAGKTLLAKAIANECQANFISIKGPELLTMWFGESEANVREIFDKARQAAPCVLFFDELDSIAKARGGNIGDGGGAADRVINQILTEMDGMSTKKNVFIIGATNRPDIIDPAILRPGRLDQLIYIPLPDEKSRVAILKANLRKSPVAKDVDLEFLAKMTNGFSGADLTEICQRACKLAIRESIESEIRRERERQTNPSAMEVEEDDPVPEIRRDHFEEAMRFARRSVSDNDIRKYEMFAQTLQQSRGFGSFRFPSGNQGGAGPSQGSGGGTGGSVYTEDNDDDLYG

Transitional endoplasmic reticulum ATPase (Homo sapiens, UniProt P55072), sequence (P55072 whole entry): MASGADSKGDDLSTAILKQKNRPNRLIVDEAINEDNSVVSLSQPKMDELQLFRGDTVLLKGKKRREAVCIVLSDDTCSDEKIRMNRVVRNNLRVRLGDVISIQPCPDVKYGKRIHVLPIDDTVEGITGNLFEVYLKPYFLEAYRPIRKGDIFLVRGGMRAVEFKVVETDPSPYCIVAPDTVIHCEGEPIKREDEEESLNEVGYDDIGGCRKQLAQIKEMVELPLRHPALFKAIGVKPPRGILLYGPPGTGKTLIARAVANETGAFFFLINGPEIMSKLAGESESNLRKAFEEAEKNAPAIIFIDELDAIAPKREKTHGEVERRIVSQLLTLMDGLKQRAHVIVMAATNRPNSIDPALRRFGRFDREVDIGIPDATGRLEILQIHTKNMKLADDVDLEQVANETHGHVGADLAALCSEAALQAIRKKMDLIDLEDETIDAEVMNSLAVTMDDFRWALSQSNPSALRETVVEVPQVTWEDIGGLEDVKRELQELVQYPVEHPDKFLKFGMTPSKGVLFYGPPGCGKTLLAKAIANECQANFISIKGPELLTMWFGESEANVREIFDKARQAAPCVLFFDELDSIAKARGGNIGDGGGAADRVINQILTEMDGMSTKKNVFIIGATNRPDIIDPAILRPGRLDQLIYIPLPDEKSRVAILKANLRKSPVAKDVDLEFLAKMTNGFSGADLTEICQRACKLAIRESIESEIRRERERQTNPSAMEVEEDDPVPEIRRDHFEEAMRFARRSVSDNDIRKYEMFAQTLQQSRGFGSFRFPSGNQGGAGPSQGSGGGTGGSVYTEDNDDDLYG
Serine/threonine-protein phosphatase PP1-alpha catalytic subunit, sequence (P62136 whole entry): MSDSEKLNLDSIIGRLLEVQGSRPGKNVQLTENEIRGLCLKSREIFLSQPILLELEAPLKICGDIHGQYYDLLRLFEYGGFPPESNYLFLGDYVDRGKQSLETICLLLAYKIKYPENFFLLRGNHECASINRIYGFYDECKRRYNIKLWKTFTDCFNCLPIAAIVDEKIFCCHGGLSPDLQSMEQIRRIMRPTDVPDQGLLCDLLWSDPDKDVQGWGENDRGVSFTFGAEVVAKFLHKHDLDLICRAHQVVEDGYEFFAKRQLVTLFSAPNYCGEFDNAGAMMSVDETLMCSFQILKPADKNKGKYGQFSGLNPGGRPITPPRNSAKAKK
Sphingosine 1-phosphate receptor 2, sequence (O95136 whole entry): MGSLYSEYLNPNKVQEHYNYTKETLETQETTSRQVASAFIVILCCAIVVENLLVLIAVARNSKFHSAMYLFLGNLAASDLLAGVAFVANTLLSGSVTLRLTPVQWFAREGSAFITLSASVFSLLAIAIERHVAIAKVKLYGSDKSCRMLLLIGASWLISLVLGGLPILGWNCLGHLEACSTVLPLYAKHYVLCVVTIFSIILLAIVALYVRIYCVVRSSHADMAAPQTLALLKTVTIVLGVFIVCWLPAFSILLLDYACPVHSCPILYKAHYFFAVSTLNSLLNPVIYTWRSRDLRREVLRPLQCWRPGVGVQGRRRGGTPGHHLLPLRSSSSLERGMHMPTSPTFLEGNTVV
Genome polyprotein, sequence (P29990 2492-3391 limits assumed): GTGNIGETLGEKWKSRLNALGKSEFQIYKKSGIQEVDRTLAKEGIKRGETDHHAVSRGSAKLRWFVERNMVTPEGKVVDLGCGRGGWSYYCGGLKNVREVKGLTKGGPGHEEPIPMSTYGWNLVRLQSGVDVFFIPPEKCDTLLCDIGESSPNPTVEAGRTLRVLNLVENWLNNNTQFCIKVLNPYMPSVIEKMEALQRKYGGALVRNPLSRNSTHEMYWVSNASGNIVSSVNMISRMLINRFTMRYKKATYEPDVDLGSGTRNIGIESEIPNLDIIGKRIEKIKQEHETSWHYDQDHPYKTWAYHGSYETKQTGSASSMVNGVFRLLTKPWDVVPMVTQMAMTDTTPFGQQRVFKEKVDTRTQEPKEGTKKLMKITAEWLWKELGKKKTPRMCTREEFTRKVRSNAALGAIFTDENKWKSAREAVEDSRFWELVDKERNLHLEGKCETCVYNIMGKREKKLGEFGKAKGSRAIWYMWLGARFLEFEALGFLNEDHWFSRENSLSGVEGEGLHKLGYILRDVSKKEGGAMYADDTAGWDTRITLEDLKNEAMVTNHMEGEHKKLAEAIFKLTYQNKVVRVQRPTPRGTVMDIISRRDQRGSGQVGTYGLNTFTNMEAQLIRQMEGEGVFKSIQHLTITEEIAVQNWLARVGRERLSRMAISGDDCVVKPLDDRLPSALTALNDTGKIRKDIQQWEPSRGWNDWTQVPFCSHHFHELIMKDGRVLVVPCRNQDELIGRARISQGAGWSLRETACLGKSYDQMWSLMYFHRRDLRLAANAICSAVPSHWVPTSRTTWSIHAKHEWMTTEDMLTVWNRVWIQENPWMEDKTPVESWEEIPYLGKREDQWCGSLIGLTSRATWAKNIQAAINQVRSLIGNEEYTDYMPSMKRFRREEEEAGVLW
Serine/threonine-protein phosphatase, sequence (Q9BPW0 whole entry): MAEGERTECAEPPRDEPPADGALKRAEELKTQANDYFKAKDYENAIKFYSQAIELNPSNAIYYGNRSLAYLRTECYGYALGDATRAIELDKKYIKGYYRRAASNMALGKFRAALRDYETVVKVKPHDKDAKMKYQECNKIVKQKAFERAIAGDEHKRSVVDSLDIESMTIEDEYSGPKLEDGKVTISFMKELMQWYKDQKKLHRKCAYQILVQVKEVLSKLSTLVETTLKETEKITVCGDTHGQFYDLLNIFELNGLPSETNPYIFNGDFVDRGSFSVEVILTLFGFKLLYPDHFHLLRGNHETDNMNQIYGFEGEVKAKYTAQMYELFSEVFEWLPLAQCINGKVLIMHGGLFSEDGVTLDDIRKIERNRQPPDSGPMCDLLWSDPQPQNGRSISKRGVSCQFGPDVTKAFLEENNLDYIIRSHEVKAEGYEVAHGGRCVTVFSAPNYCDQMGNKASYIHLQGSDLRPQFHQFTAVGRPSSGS
Potassium voltage-gated channel subfamily KQT member 2, sequence (O88943 whole entry W236L): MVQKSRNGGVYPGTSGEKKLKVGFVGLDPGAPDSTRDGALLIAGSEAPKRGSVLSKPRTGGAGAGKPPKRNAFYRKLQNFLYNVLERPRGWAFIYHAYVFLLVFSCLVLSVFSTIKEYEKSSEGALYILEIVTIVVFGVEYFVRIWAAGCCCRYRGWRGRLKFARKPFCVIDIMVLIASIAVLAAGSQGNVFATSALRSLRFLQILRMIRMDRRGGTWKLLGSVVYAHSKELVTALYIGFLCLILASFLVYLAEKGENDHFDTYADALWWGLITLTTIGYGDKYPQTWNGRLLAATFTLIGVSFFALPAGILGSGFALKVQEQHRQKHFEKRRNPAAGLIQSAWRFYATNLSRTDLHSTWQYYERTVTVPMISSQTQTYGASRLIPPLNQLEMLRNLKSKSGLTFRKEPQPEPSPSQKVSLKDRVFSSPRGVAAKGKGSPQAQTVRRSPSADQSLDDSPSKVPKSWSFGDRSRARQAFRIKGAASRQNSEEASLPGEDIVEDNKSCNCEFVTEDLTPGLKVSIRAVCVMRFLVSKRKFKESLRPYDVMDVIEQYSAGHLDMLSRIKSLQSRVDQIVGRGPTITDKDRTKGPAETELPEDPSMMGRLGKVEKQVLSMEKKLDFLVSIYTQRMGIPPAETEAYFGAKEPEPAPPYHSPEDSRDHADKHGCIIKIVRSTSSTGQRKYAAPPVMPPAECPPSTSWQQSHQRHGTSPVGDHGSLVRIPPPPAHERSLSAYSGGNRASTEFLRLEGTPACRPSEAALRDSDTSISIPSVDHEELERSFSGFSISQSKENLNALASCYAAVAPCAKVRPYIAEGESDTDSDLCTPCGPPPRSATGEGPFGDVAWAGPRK
Nonstructural protein 1, sequence (Q194T2 whole entry): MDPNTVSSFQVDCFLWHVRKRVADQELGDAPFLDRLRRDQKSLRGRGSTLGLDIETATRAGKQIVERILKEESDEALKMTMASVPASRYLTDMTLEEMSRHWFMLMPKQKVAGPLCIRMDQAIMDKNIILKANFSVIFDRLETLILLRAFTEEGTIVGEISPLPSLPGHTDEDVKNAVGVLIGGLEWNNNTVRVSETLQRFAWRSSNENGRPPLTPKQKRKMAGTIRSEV

Cc1cccc(-n2c(/C=C/c3ccc([N+](=O)[O-])o3)nc3ccccc3c2=O)c1
IC50 [1]: 10.8 µM (active)
EC50 [2]: 8.27 µM (active)
AC50 [3]: 1.72 µM (active)
EC50 [4]: 5.28 µM (inconclusive)
EC50 [5]: 4.86 µM (inconclusive)
EC50 [6]: 5.82 µM (active)
CC50 [7]: > 25 µM (active)
EC50 [8]: > 99 µM (inactive)
EC50 [9]: 3.69 µM (inconclusive)
EC50 [10]: 0.552 µM (active)
EC50 [11]: 0.61 µM (active)
IC50 [12]: > 100 µM (active)

Cc1nnc(NC(=O)c2nc(S(=O)(=O)Cc3ccccc3C)ncc2Cl)s1
AC50 [13]: 14.5 µM (active)
AC50 [14]: > 380 µM (inactive)
IC50 [15]: 4.41 µM (active)
EC50 [16]: 692 µM (active)
AC50 [17]: 0.812 µM (active)
EC50 [18]: > 380 µM (inactive)
AC50 [19]: 57 µM (active)

CCOC(=O)c1nn(-c2ccc(C)cc2)c(=O)c2c(N)scc12
AC50 [14]: 89.9 µM (active)
EC50 [18]: 11.4 µM (active)
IC50 [20]: 9.99 µM (active)
IC50 [21]: > 67 µM (not active)

Cc1coc2c(O)cc3c(c12)OC1(N2CCCCC2)C(=O)NCCCC31 (centres undefined)
IC50 [22]: 35.2 µM (active)
IC50 [23]: 27.4 µM (active)
EC50 [24]: 11 µM (active)
EC50 [25]: 11.3 µM (active)
IC50 [26]: > 50 µM (not active)
IC50 [27]: > 100 µM (active)

Cc1cc(C(=O)COC(=O)c2ccco2)c(C)n1Cc1ccccc1
EC50 [28]: > 30 µM (not active)

CCCC[C@H](CN[C@@H](CNC)[C@H](C)CC)NCCC12CCC(CC1)C2
IC50 [29]: > 20 µM (inactive)
IC50 [30]: 6.54 µM (active)

N#Cc1ccc(Nc2nc(-c3ccc(O)cc3O)cs2)cc1
IC50 [31]: 4.71 µM (active)
IC50 [32]: > 50 µM (not active)
